Tested on: strains expressing KPC alone or in combination with additional beta-lactamases
Assay: microbe, parasite or virus in culture
Format: cell-based
[1] = Klebsiella pneumoniae KP 1004, KPC-2, Compound 5 10 mg/L
[2] = Klebsiella pneumoniae KP 1008, KPC-2, Compound 5 0.31 mg/L
[3] = Klebsiella pneumoniae KP 1008, KPC-2, Compound 5 0.625 mg/L
[4] = Klebsiella pneumoniae KP 1008, KPC-2, Compound 5 […]
[5] = Klebsiella pneumoniae KP1082, KPC-2 SHV-1, Compound 5 0.31 mg/L
[6] = Klebsiella pneumoniae KP1082, KPC-2 SHV-1, Compound 5 0.625 mg/L
[7] = Klebsiella pneumoniae KP1082, KPC-2 SHV-1, Compound 5 5 mg/L
[8] = Klebsiella pneumoniae KP1082, KPC-2 SHV-1, Compound 5 10 mg/L
[9] = Klebsiella pneumoniae KP1082, KPC-2 SHV-1, Compound 5 […]
[10] = Klebsiella pneumoniae KP1083, KPC-3, SHV-1, TEM-1, Compound 5 10 mg/L
[11] = Klebsiella pneumoniae KP1083, KPC-3, SHV-1, TEM-1, Compound 5 […]
[12] = Klebsiella pneumoniae KP1084, KPC-3, SHV-11, TEM-1, Compound 5 5 mg/L
[13] = Klebsiella pneumoniae KP1084, KPC-3, SHV-11, TEM-1, Compound 5 10 mg/L
[14] = Klebsiella pneumoniae KP 1087, KPC-2, CTX-M-15, SHV-11, TEM-1, Compound 5 0.31 mg/L
[15] = Klebsiella pneumoniae KP 1087, KPC-2, CTX-M-15, SHV-11, TEM-1, Compound 5 0.625 mg/L
[16] = Klebsiella pneumoniae KP 1087, KPC-2, CTX-M-15, SHV-11, TEM-1, Compound 5 5 mg/L
[17] = Klebsiella pneumoniae KP 1087, KPC-2, CTX-M-15, SHV-11, TEM-1, Compound 5 10 mg/L
[18] = Klebsiella pneumoniae KP1088, KPC-3, SHV-11, TEM-1, Compound 5 0.31 mg/L
[19] = Klebsiella pneumoniae KP1088, KPC-3, SHV-11, TEM-1, Compound 5 0.625 mg/L
[20] = Klebsiella pneumoniae KP1088, KPC-3, SHV-11, TEM-1, Compound 5 5 mg/L
[21] = Klebsiella pneumoniae KP1088, KPC-3, SHV-11, TEM-1, Compound 5 10 mg/L

O=C(O)C[C@@H]1CC[C@H](NC(=O)Cc2cccs2)B(O)O1 [Compound 5, 2-((3R,6S)-2-hydroxy-3-(2-(thiophen-2-yl)acetamido)-1,2-oxaborinan-6-yl)acetic acid]
Y (MIC of 0.5 mg/L to 4 mg/L): MIC of Doripenem [11] | MIC of Ertapenem [11] | MIC of Doripenem [12] | MIC of Ertapenem [12] | MIC of Ertapenem [13] | MIC of Doripenem [16] | MIC of Ertapenem [16] | MIC of Ertapenem [17] | MIC of Doripenem [18] | MIC of Ertapenem [18]
X (MIC of less than 0.5 mg/L): MIC of Ertapenem (Klebsiella pneumoniae KP 1004, KPC-2, Compound 5 5 mg/L) | MIC of Biapenem [1] | MIC of Doripenem [1] | MIC of Ertapenem [1] | MIC of Biapenem (Klebsiella pneumoniae KP 1004, KPC-2, Compound 5 […]) | MIC of Biapenem [2] | MIC of Doripenem [2] | MIC of Ertapenem [2] | MIC of Biapenem [3] | MIC of Doripenem [3] | MIC of Ertapenem [3] | MIC of Biapenem [4] | MIC of Doripenem [4] | MIC of Ertapenem [4] | MIC of Biapenem [5] | MIC of Doripenem [5] | MIC of Ertapenem [5] | MIC of Biapenem [6] | MIC of Doripenem [6] | MIC of Ertapenem [6] | MIC of Biapenem [7] | MIC of Doripenem [7] | MIC of Ertapenem [7] | MIC of Biapenem [8] | MIC of Doripenem [8] | MIC of Ertapenem [8] | MIC of Biapenem [9] | MIC of Doripenem [9] | MIC of Ertapenem [9] | MIC of Doripenem [10] | MIC of Ertapenem [10] | MIC of Biapenem [12] | MIC of Biapenem [13] | MIC of Doripenem [13] | MIC of Biapenem [16] | MIC of Biapenem [17] | MIC of Doripenem [17] | MIC of Biapenem [18] | MIC of Biapenem [19] | MIC of Doripenem [19] | MIC of Ertapenem [19] | MIC of Biapenem [20] | MIC of Doripenem [20] | MIC of Ertapenem [20] | MIC of Biapenem [21] | MIC of Doripenem [21] | MIC of Ertapenem [21]
Z (MIC of greater than 4 mg/L): MIC of Ertapenem (Klebsiella pneumoniae KP1084, KPC-3, SHV-11, TEM-1, Compound 5 0.31 mg/L) | MIC of Ertapenem (Klebsiella pneumoniae KP1084, KPC-3, SHV-11, TEM-1, Compound 5 0.625 mg/L) | MIC of Ertapenem (Klebsiella pneumoniae KP1084, KPC-3, SHV-11, TEM-1, Compound 5 […]) | MIC of Biapenem [14] | MIC of Doripenem [14] | MIC of Ertapenem [14] | MIC of Biapenem [15] | MIC of Doripenem [15] | MIC of Ertapenem [15] | MIC of Ertapenem (Klebsiella pneumoniae KP 1087, KPC-2, CTX-M-15, SHV-11, TEM-1, Compound 5 […])
